{"source": "paper PMC9675574", "about": "(JCI Insight, 2022)", "key": {"[1]": {"system": "trypsin", "conditions": "cited from earlier work"}, "[2]": {"system": "cerulein-induced pancreatitis in PRSS1^R122H mice", "conditions": "cited from earlier work"}, "[3]": {"system": "transmembrane serine protease 2", "conditions": "cited from earlier work"}, "[4]": {"system": "spontaneous pancreatitis in T7D23A mice", "test": "Spontaneous pancreatitis in T7D23A mice, oral gavage", "format": "in vivo, mouse", "from_the_text": "(§1) The generation and properties of the T7D23A and T7K24R mice carrying trypsinogen mutations were described recently ([29], [30]). Heterozygous T7D23A and homozygous T7K24R mice were used. Protocols for genotyping have been reported earlier ([29], [30]). C57BL/6N mice were purchased from Charles River Laboratories or produced in our breeding facility from the same stock. Both male and female mice were studied.\n(§2) Control mice were given gavage of the vehicle solution (Captisol; see below) or regular chow.\n(§3) Captisol (β-cyclodextrin sulfobutyl ethers, sodium salts, lot number NC-04A-180185) was obtained from Cydex Pharmaceuticals (through Thermo Fisher Scientific) and was dissolved in sterile normal saline (3.5 g in 10 mL). […] The mixture was then compressed into pellets using the barrel of a 10 mL plastic syringe and a plunger. The prodrug-containing pellets were allowed to dry at 24°C for 2 days and stored at 4°C until use."}, "[5]": {"system": "T7D23A and T7K24R mice", "test": "Safety observations in treated mice", "format": "in vivo, mouse", "from_the_text": "as §2"}, "[6]": {"conditions": "humans; independent of dose, not influenced by food; cited from earlier work"}, "[7]": {"system": "cerulein-induced pancreatitis in T7K24R mice", "test": "Cerulein-induced pancreatitis in T7K24R mice", "format": "in vivo, mouse", "protocol": "Pancreatitis was induced in T7K24R mice with 8 hourly intraperitoneal injections of the secretagogue peptide cerulein used in a dose of 50 μg/kg. Cerulein (catalog number C9026, MilliporeSigma) was dissolved in sterile normal saline at 10 μg/mL concentration. Mice were sacrificed 1, 24, 48, 72, or 96 hours from the first cerulein injection, as indicated, and the pancreas and blood were harvested. Details of histological analysis and measurement of plasma amylase (4 μL assayed) were reported previously ([29]–[31]).\nas §2, §3"}, "[8]": {"test": "Estimation of absorbed dabigatran etexilate", "set-up": "species or system mouse"}, "[9]": {"system": "spontaneous pancreatitis in T7D23A mice", "test": "Spontaneous pancreatitis in T7D23A mice, feeding with drug-containing chow", "format": "in vivo, mouse", "from_the_text": "as §1, §2, §3"}, "[10]": {"conditions": "gavage 1 × 100, 2 × 100 or 1 × 200 mg/kg daily for 2 weeks"}, "[11]": {"conditions": "single oral gavage 200 mg/kg 30 minutes after last cerulein injection, 96 hours"}, "[12]": {"conditions": "single oral gavage 200 mg/kg, 15 treated mice"}}, "note": "Several values for one entry are separate records, joined by “and”; a condition that tells them apart may be missing. Equal entries are not always repeated. Where two headings read alike, the source gives them in different places.", "data": [{"smiles": "COc1ccc(-n2nc(C(N)=O)c3c2C(=O)N(c2ccc(N4CCCCC4=O)cc2)CC3)cc1", "note": "[apixaban]", "values": [{"measurement": "trypsin-inhibitory activity", "setting": "[1]", "value": "devoid of trypsin-inhibitory activity"}, {"measurement": "therapeutic activity", "setting": "[2]; 100 mg/kg alone", "value": "no therapeutic activity whatsoever"}, {"measurement": "therapeutic activity", "setting": "[2]; apixaban 100 mg/kg combined with camostat 200 mg/kg", "value": "highly effective"}]}, {"smiles": "CN(C)C(=O)COC(=O)Cc1ccc(OC(=O)c2ccc(NC(=N)N)cc2)cc1", "note": "[camostat]", "values": [{"measurement": "inhibition of transmembrane serine protease 2", "setting": "[3]", "value": "strong inhibitors"}, {"measurement": "therapeutic activity", "setting": "[2]; 200 mg/kg alone", "value": "only a partial effect"}]}, {"smiles": "CCCCCCOC(=O)NC(=N)c1ccc(NCc2nc3cc(C(=O)N(CCC(=O)OCC)c4ccccn4)ccc3n2C)cc1", "note": "[dabigatran etexilate]", "values": [{"measurement": "intact acini per visual field, treated versus untreated", "setting": "[4]; [10]", "value": "no appreciable difference"}, {"measurement": "pancreas weight", "setting": "[4]; [10]", "value": "did not improve"}, {"measurement": "plasma amylase levels relative to untreated T7D23A controls", "setting": "[4]; [10]", "value": "significantly lower"}, {"measurement": "body weight gain", "setting": "[4]; gavage 1 × 100, 2 × 100 or 1 × 200 mg/kg daily for 2 weeks, 3 to 5 weeks of age", "value": "unaffected by gavage treatment"}, {"measurement": "effect on spontaneous pancreatitis", "setting": "[4]; intragastric gavage for 2 weeks", "value": "did not ameliorate"}, {"measurement": "bleeding, morbidity, mortality", "setting": "[5]; gavage 100 or 200 mg/kg or chow 10 mg/g", "value": "no bleeding, morbidity, or mortality were observed"}, {"measurement": "hematoxylin-eosin sections of liver, intestine, and kidney", "setting": "[5]; mice treated with dabigatran etexilate or vehicle", "value": "no signs of organ damage"}, {"measurement": "oral bioavailability", "setting": "[6]", "value": "around 6.5%"}, {"measurement": "body weight, start versus end of experiment", "setting": "[7]; [11]", "value": "no change in body weight"}, {"measurement": "pancreas weight versus vehicle-treated mice with pancreatitis", "setting": "[7]; [11]", "value": "significantly higher"}, {"measurement": "share of drug-treated mice with complete protective effect (histology)", "setting": "[7]; [12]", "value": "~50", "unit": "%"}, {"measurement": "share of mice with significant yet incomplete effect (30%–50% normal histology)", "setting": "[7]; [12]", "value": "about 20%"}, {"measurement": "plasma amylase activity in a subset of treated mice (4 of 15)", "setting": "[7]; single oral gavage 200 mg/kg, 4 days after induction", "value": "more than 3 fold"}, {"measurement": "proportion of intact acini versus vehicle-treated group", "setting": "[7]; single oral gavage 200 mg/kg, histology at 96 hours", "value": "significantly higher"}, {"measurement": "intact acini on pancreas sections, individual mice with elevated plasma amylase", "setting": "[7]; single oral gavage 200 mg/kg, the 4 mice with elevated amylase, 200 mg/kg", "value": "45% and 13% and 15% and 35%"}, {"measurement": "effect on cerulein-induced pancreatitis", "setting": "[2]; PRSS1^R122H transgenic mice", "value": "markedly improved"}, {"measurement": "daily dose of absorbed dabigatran etexilate", "setting": "[8]; 10 mg prodrug/g chow, about 4 g chow per 24 hours, estimated", "value": 2.6, "unit": "mg"}, {"measurement": "systemically absorbed single dose", "setting": "[8]; 100 mg/kg intragastric gavage, 20 g mouse, estimated from human bioavailability", "value": 0.13, "unit": "mg"}, {"measurement": "effect on spontaneous pancreatitis", "setting": "[9]; chow with 10 mg/g for 1 week", "value": "did not prevent or improve"}, {"measurement": "intact acini, pancreatitis severity", "setting": "[9]; chow with 10 mg/g for 1 week", "value": "no effect"}, {"measurement": "plasma amylase activities", "setting": "[9]; chow with 10 mg/g for 1 week, all 4 groups", "value": "comparable"}, {"measurement": "pancreas weight, treated versus untreated", "setting": "[9]; chow with 10 mg/g for 1 week, both strains (C57BL/6N and T7D23A)", "value": "small increase"}, {"measurement": "body weight gain", "setting": "[9]; chow with 10 mg/g, 21 to 28 days of age, C57BL/6N and T7D23A", "value": "gained weight similarly"}]}, {"smiles": "N=C(N)c1ccc2cc(OC(=O)c3ccc(N=C(N)N)cc3)ccc2c1", "note": "[nafamostat]", "values": [{"measurement": "inhibition of transmembrane serine protease 2", "setting": "[3]", "value": "strong inhibitors"}]}]}
